Assay results from US9605004B2, “Chemical compounds” (SYNGENTA LIMITED, priority 2013, dated 2017).

Experiments:
[1] = system: a variety of test species; experiment: Pre-emergence herbicidal activity (Example 8a, Table 2); assay type: in vivo; set-up: key: 0 = no damage to plant, 5 = total damage to plant; details: application pre-emergence, rate 1000 g/ha, evaluated after 13 days
Method in brief: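 Damage was rated 13 days after treatment on a 0–5 scale (0 = no damage, 5 = total damage). Pots of seeds in standard soil were sprayed one day after sowing with an aqueous solution from an acetone/water (50:50), 0.5% Tween 20 formulation and kept at 24/16 °C day/night.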

[2] = system: a variety of test species; experiment: Post-emergence herbicidal activity (Example 8b, Table 3); assay type: in vivo; details: application post-emergence, rate 1000 g/ha, evaluated after 13 days, scale 0-5; for Herbicidal damage score, ABUTH: Abutilon theophrasti; for Herbicidal damage score, ALOMY: Alopecurus myosuroides; for Herbicidal damage score, AMARE: Amaranthus retroflexus; for Herbicidal damage score, ECHCG: Echinochloa crus-galli; for Herbicidal damage score, SETFA: Setaria faberi; for Herbicidal damage score, ZEAMX: Zea mays
Method in brief: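 Pot-grown seedlings sprayed 8 days after sowing with active ingredient in acetone/water (50:50) plus 0.5% Tween 20. Glasshouse at 24/16 °C day/night, 14 h light, 65% humidity, watered twice daily. Damage scored after 13 days on a 0–5 scale (5 = total damage, 0 = none).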

## CC1=C(Cl)C(=O)N(c2cc(/C=C/C(C)(C)C)n(C)n2)C1O (stereo not shown) [Compound B17]
[1]
  Pre-emergence herbicidal activity, damage score ABUTH: 2
  Pre-emergence herbicidal activity, damage score ALOMY: 2
  Pre-emergence herbicidal activity, damage score AMARE: 4
  Pre-emergence herbicidal activity, damage score ECHCG: 4
  Pre-emergence herbicidal activity, damage score SETFA: 3
  Pre-emergence herbicidal activity, damage score ZEAMX: 2
[2]
  Herbicidal damage score, ABUTH: 5
  Herbicidal damage score, ALOMY: 3
  Herbicidal damage score, AMARE: 5
  Herbicidal damage score, ECHCG: 5
  Herbicidal damage score, SETFA: 5
  Herbicidal damage score, ZEAMX: 1

## CC1=C(Cl)C(=O)N(c2cc(Cl)n(C)n2)C1O (stereo not shown) [Compound B18]
[1]
  Pre-emergence herbicidal activity, damage score ABUTH: 4
  Pre-emergence herbicidal activity, damage score ALOMY: 3
  Pre-emergence herbicidal activity, damage score AMARE: 5
  Pre-emergence herbicidal activity, damage score ECHCG: 4
  Pre-emergence herbicidal activity, damage score SETFA: 5
  Pre-emergence herbicidal activity, damage score ZEAMX: 2
[2]
  Herbicidal damage score, ABUTH: 5
  Herbicidal damage score, ALOMY: 5
  Herbicidal damage score, AMARE: 5
  Herbicidal damage score, ECHCG: 5
  Herbicidal damage score, SETFA: 5
  Herbicidal damage score, ZEAMX: 5

## CC(C)=Cc1cc(N2C(=O)C(Cl)=C(C)C2O)nn1C (stereo not shown) [Compound B20]
[1]
  Pre-emergence herbicidal activity, damage score ABUTH: 4
  Pre-emergence herbicidal activity, damage score ALOMY: 2
  Pre-emergence herbicidal activity, damage score AMARE: 4
  Pre-emergence herbicidal activity, damage score ECHCG: 4
  Pre-emergence herbicidal activity, damage score SETFA: 4
  Pre-emergence herbicidal activity, damage score ZEAMX: 2
[2]
  Herbicidal damage score, ALOMY: 4
  Herbicidal damage score, ZEAMX: 2

## C/C=C/c1cc(N2C(=O)C(Cl)=C(C)C2O)nn1C (stereo not shown) [Compound B21]
[1]
  Pre-emergence herbicidal activity, damage score ABUTH: 2
  Pre-emergence herbicidal activity, damage score ALOMY: 3
  Pre-emergence herbicidal activity, damage score AMARE: 4
  Pre-emergence herbicidal activity, damage score ECHCG: 4
  Pre-emergence herbicidal activity, damage score SETFA: 3
  Pre-emergence herbicidal activity, damage score ZEAMX: 0
[2]
  Herbicidal damage score, ABUTH: 4
  Herbicidal damage score, ALOMY: 2
  Herbicidal damage score, AMARE: 4
  Herbicidal damage score, ECHCG: 4
  Herbicidal damage score, SETFA: 5
  Herbicidal damage score, ZEAMX: 0

## CC(C)=CCc1cc(N2C(=O)C(Cl)=C(C)C2O)nn1C (stereo not shown) [Compound B22]
[1]
  Pre-emergence herbicidal activity, damage score ABUTH: 0
  Pre-emergence herbicidal activity, damage score ALOMY: 0
  Pre-emergence herbicidal activity, damage score ECHCG: 0
  Pre-emergence herbicidal activity, damage score SETFA: 0
  Pre-emergence herbicidal activity, damage score ZEAMX: 0
[2]
  Herbicidal damage score, ABUTH: 3
  Herbicidal damage score, ALOMY: 0
  Herbicidal damage score, AMARE: 0
  Herbicidal damage score, ECHCG: 2
  Herbicidal damage score, ZEAMX: 2

## C=CCC(C)(C)c1cc(N2C(=O)C(Cl)=C(C)C2O)nn1C (stereo not shown) [Compound B23]
[1]
  Pre-emergence herbicidal activity, damage score ALOMY: 4
  Pre-emergence herbicidal activity, damage score ECHCG: 4
  Pre-emergence herbicidal activity, damage score ZEAMX: 4
[2]
  Herbicidal damage score, ZEAMX: 4

## CC1=C(Cl)C(=O)N(c2cc(Cc3ccccc3)n(C)n2)C1O (stereo not shown) [Compound B24]
[1]
  Pre-emergence herbicidal activity, damage score ABUTH: 3
  Pre-emergence herbicidal activity, damage score ALOMY: 3
  Pre-emergence herbicidal activity, damage score AMARE: 3
  Pre-emergence herbicidal activity, damage score ECHCG: 3
  Pre-emergence herbicidal activity, damage score SETFA: 3
  Pre-emergence herbicidal activity, damage score ZEAMX: 0
[2]
  Herbicidal damage score, ABUTH: 5
  Herbicidal damage score, ALOMY: 4
  Herbicidal damage score, AMARE: 5
  Herbicidal damage score, ECHCG: 5
  Herbicidal damage score, SETFA: 5
  Herbicidal damage score, ZEAMX: 1

## CC1=C(Cl)C(=O)N(c2cc(C#CC(C)(C)C)n(C)n2)C1O (stereo not shown) [Compound B25]
[1]
  Pre-emergence herbicidal activity, damage score ABUTH: 0
  Pre-emergence herbicidal activity, damage score ALOMY: 0
  Pre-emergence herbicidal activity, damage score AMARE: 2
  Pre-emergence herbicidal activity, damage score ECHCG: 0
  Pre-emergence herbicidal activity, damage score SETFA: 0
  Pre-emergence herbicidal activity, damage score ZEAMX: 0
[2]
  Herbicidal damage score, ABUTH: 3
  Herbicidal damage score, ALOMY: 1
  Herbicidal damage score, AMARE: 3
  Herbicidal damage score, ECHCG: 1
  Herbicidal damage score, SETFA: 1
  Herbicidal damage score, ZEAMX: 0

## CC1=C(Cl)C(=O)N(c2cc(CCC(C)C)n(C)n2)C1O (stereo not shown) [Compound B27]
[1]
  Pre-emergence herbicidal activity, damage score ABUTH: 3
  Pre-emergence herbicidal activity, damage score ALOMY: 1
  Pre-emergence herbicidal activity, damage score AMARE: 5
  Pre-emergence herbicidal activity, damage score ECHCG: 4
  Pre-emergence herbicidal activity, damage score SETFA: 3
  Pre-emergence herbicidal activity, damage score ZEAMX: 2
[2]
  Herbicidal damage score, ABUTH: 3
  Herbicidal damage score, ALOMY: 1
  Herbicidal damage score, AMARE: 2
  Herbicidal damage score, ECHCG: 5
  Herbicidal damage score, SETFA: 5
  Herbicidal damage score, ZEAMX: 0

## CCC1=C(Cl)C(=O)N(c2ccn(C)n2)C1O (stereo not shown) [Compound B28]
[1]
  Pre-emergence herbicidal activity, damage score ABUTH: 0
  Pre-emergence herbicidal activity, damage score ALOMY: 0
  Pre-emergence herbicidal activity, damage score AMARE: 0
  Pre-emergence herbicidal activity, damage score ECHCG: 0
  Pre-emergence herbicidal activity, damage score SETFA: 0
  Pre-emergence herbicidal activity, damage score ZEAMX: 0
[2]
  Herbicidal damage score, ABUTH: 0
  Herbicidal damage score, ALOMY: 0
  Herbicidal damage score, AMARE: 0
  Herbicidal damage score, ECHCG: 0
  Herbicidal damage score, SETFA: 0
  Herbicidal damage score, ZEAMX: 0

## CC1=C(Cl)C(=O)N(c2cc(C#CC(C)C)n(C)n2)C1O (stereo not shown) [Compound B29]
[1]
  Pre-emergence herbicidal activity, damage score ABUTH: 0
  Pre-emergence herbicidal activity, damage score ALOMY: 0
  Pre-emergence herbicidal activity, damage score AMARE: 2
  Pre-emergence herbicidal activity, damage score ECHCG: 0
  Pre-emergence herbicidal activity, damage score SETFA: 0
  Pre-emergence herbicidal activity, damage score ZEAMX: 0
[2]
  Herbicidal damage score, ABUTH: 0
  Herbicidal damage score, ALOMY: 0
  Herbicidal damage score, AMARE: 0
  Herbicidal damage score, ECHCG: 2
  Herbicidal damage score, SETFA: 2
  Herbicidal damage score, ZEAMX: 0

## CC1=C(Cl)C(=O)N(c2cc(C#CCC(C)C)n(C)n2)C1O (stereo not shown) [Compound B30]
[1]
  Pre-emergence herbicidal activity, damage score ABUTH: 0
  Pre-emergence herbicidal activity, damage score ALOMY: 0
  Pre-emergence herbicidal activity, damage score AMARE: 2
  Pre-emergence herbicidal activity, damage score ECHCG: 0
  Pre-emergence herbicidal activity, damage score SETFA: 0
  Pre-emergence herbicidal activity, damage score ZEAMX: 0
[2]
  Herbicidal damage score, ABUTH: 3
  Herbicidal damage score, ALOMY: 0
  Herbicidal damage score, AMARE: 3
  Herbicidal damage score, ECHCG: 0
  Herbicidal damage score, SETFA: 2
  Herbicidal damage score, ZEAMX: 0

## CCOC(C)(CC)c1cc(N2C(=O)C(Cl)=C(C)C2O)nn1C (stereo not shown) [Compound B32]
[1]
  Pre-emergence herbicidal activity, damage score ABUTH: 5
  Pre-emergence herbicidal activity, damage score ALOMY: 4
  Pre-emergence herbicidal activity, damage score AMARE: 5
  Pre-emergence herbicidal activity, damage score ECHCG: 5
  Pre-emergence herbicidal activity, damage score SETFA: 5
  Pre-emergence herbicidal activity, damage score ZEAMX: 4
[2]
  Herbicidal damage score, ABUTH: 5
  Herbicidal damage score, ALOMY: 5
  Herbicidal damage score, AMARE: 5
  Herbicidal damage score, ECHCG: 5
  Herbicidal damage score, SETFA: 5
  Herbicidal damage score, ZEAMX: 4

## CCC(C)c1cc(N2C(=O)C(Cl)=C(C)C2O)nn1C (stereo not shown) [Compound B33]
[1]
  Pre-emergence herbicidal activity, damage score ABUTH: 5
  Pre-emergence herbicidal activity, damage score ALOMY: 4
  Pre-emergence herbicidal activity, damage score AMARE: 5
  Pre-emergence herbicidal activity, damage score ECHCG: 5
  Pre-emergence herbicidal activity, damage score SETFA: 5
  Pre-emergence herbicidal activity, damage score ZEAMX: 4
[2]
  Herbicidal damage score, ABUTH: 5
  Herbicidal damage score, ALOMY: 5
  Herbicidal damage score, AMARE: 5
  Herbicidal damage score, ECHCG: 5
  Herbicidal damage score, SETFA: 5
  Herbicidal damage score, ZEAMX: 5

## CC#Cc1cc(N2C(=O)C(Cl)=C(C)C2O)nn1C (stereo not shown) [Compound B35]
[1]
  Pre-emergence herbicidal activity, damage score ABUTH: 3
  Pre-emergence herbicidal activity, damage score ALOMY: 1
  Pre-emergence herbicidal activity, damage score AMARE: 5
  Pre-emergence herbicidal activity, damage score ECHCG: 4
  Pre-emergence herbicidal activity, damage score SETFA: 3
  Pre-emergence herbicidal activity, damage score ZEAMX: 0
[2]
  Herbicidal damage score, ABUTH: 4
  Herbicidal damage score, ALOMY: 1
  Herbicidal damage score, AMARE: 1
  Herbicidal damage score, ECHCG: 4
  Herbicidal damage score, SETFA: 4
  Herbicidal damage score, ZEAMX: 0

## CSc1cc(N2C(=O)C(Cl)=C(C)C2O)nn1C (stereo not shown) [Compound B36]
[1]
  Pre-emergence herbicidal activity, damage score ABUTH: 5
  Pre-emergence herbicidal activity, damage score ALOMY: 3
  Pre-emergence herbicidal activity, damage score AMARE: 5
  Pre-emergence herbicidal activity, damage score ECHCG: 5
  Pre-emergence herbicidal activity, damage score SETFA: 5
  Pre-emergence herbicidal activity, damage score ZEAMX: 2
[2]
  Herbicidal damage score, ABUTH: 5
  Herbicidal damage score, ALOMY: 4
  Herbicidal damage score, AMARE: 5
  Herbicidal damage score, ECHCG: 5
  Herbicidal damage score, SETFA: 5
  Herbicidal damage score, ZEAMX: 5
